≈ marks a conversion by molar mass, not a printed value. Counter-ions that a name gives are not always drawn. Like-named read-outs stand apart in the source and are kept apart here.
What was measured:
Enterobacter cloacae 963 = experiment: MIC, twofold agar dilution method (standard laboratory strain); format: cell-based; settings: Enterobacter cloacae 963, Gram -; 10^6 cfu/ml; 18 hrs at 37 °C
Description: (§1) Overnight cultures in Mueller-Hinton broth were suspended by buffered saline gelatin. One loopful of the bacterial suspension (10⁶ or 10⁸ colony-forming units/ml) was incubated onto the plates containing test compounds. The plates were incubated for 18 hrs at 37 °C. The MIC was defined by the lowest concentration of the drug that inhibited visible growth of bacteria.

[1] = system: Escherichia coli NIHJ JC-2; experiment: as above; format: cell-based; settings: NIHJJC2; Escherichia coli NIHJ JC-2, Gram -; 10^6 cfu/ml; 18 hrs at 37 °C
Description: as §1

[2] = system: Pseudomonas aeruginosa IFO 3445; experiment: as above; format: cell-based; settings: IFO3445; Pseudomonas aeruginosa IFO 3445, Gram -; 10^6 cfu/ml; 18 hrs at 37 °C
Description: as §1

[3] = system: Serratia marcescens IAM 1184; experiment: as above; format: cell-based; settings: IAM1184; Serratia marcescens IAM 1184, Gram -; 10^6 cfu/ml; 18 hrs at 37 °C
Description: as §1

[4] = system: Staphylococuss aureus FDA 209PJC-1; experiment: as above; format: cell-based; settings: Staphylococuss aureus FDA 209PJC-1, Gram +; 10^6 cfu/ml; 18 hrs at 37 °C
Description: as §1

[5] = system: Klebsiella pneumoniae PCI-602; experiment: as above; format: cell-based
Description: as §1, with “Minimum inhibitory concentrations (MIC) of test compounds were determined by the twofold agar dilution method (Chemotherapy, 29(1), 76(1981)). Overnight” for “Overnight”

[6] = system: Acinetobacter calcoaceticus HNR 904; experiment: MIC, twofold agar dilution method (clinically isolated strain); format: cell-based; settings: HNR904; Acinetobacter calcoaceticus HNR 904, Gram -; 10^6 cfu/ml; 18 hrs at 37 °C
Description: as §1

[7] = system: Acinetobacter calcoaceticus HNR 916; experiment: as above; format: cell-based; settings: HNR916; Acinetobacter calcoaceticus HNR 916, Gram -; 10^6 cfu/ml; 18 hrs at 37 °C
Description: as §1

[8] = system: Acinetobacter calcoaceticus HNR 939; experiment: as above; format: cell-based; settings: HNR939; Acinetobacter calcoaceticus HNR 939, Gram -; 10^6 cfu/ml; 18 hrs at 37 °C
Description: as §1

[9] = system: Enterobacter cloacae HNR 1939; experiment: as above; format: cell-based; settings: HNR1939; Enterobacter cloacae HNR 1939, Gram -; 10^6 cfu/ml; 18 hrs at 37 °C
Description: as §1

[10] = system: Enterobacter cloacae HNR 1941; experiment: as above; format: cell-based; settings: HNR1941; Enterobacter cloacae HNR 1941, Gram -; 10^6 cfu/ml; 18 hrs at 37 °C
Description: as §1

[11] = system: Enterobacter cloacae HNR 1946; experiment: as above; format: cell-based; settings: HNR1946; Enterobacter cloacae HNR 1946, Gram -; 10^6 cfu/ml; 18 hrs at 37 °C
Description: as §1

[12] = system: Enterococcus faecalis HPC 948; experiment: as above; format: cell-based; settings: HPC948; Enterococcus faecalis HPC 948, Gram +; 10^6 cfu/ml; 18 hrs at 37 °C
Description: as §1

[13] = system: Enterococcus faecalis HPC 975; experiment: as above; format: cell-based; settings: HPC975; Enterococcus faecalis HPC 975, Gram +; 10^6 cfu/ml; 18 hrs at 37 °C
Description: as §1

[14] = system: Enterococcus faecalis HPC 984; experiment: as above; format: cell-based; settings: HPC984; Enterococcus faecalis HPC 984, Gram +; 10^6 cfu/ml; 18 hrs at 37 °C
Description: as §1

[15] = system: Klebsiella pneumoniae HNR 828; experiment: as above; format: cell-based; settings: HNR828; Klebsiella pneumoniae HNR 828, Gram -; 10^6 cfu/ml; 18 hrs at 37 °C
Description: as §1

[16] = system: Klebsiella pneumoniae HNR 858; experiment: as above; format: cell-based; settings: HNR858; Klebsiella pneumoniae HNR 858, Gram -; 10^6 cfu/ml; 18 hrs at 37 °C
Description: as §1

[17] = system: Klebsiella pneumoniae HNR 869; experiment: as above; format: cell-based; settings: HNR869; Klebsiella pneumoniae HNR 869, Gram -; 10^6 cfu/ml; 18 hrs at 37 °C
Description: as §1

[18] = system: Pseudomonas aeruginosa HNR 1472; experiment: as above; format: cell-based; settings: HNR1472; Pseudomonas aeruginosa HNR 1472, Gram -; 10^6 cfu/ml; 18 hrs at 37 °C
Description: as §1

[19] = system: Pseudomonas aeruginosa HNR 1489; experiment: as above; format: cell-based; settings: HNR1489; Pseudomonas aeruginosa HNR 1489, Gram -; 10^6 cfu/ml; 18 hrs at 37 °C
Description: as §1

[20] = system: Pseudomonas aeruginosa HNR 1537; experiment: as above; format: cell-based; settings: HNR1537; Pseudomonas aeruginosa HNR 1537, Gram -; 10^6 cfu/ml; 18 hrs at 37 °C
Description: as §1

[21] = system: Serratia marcescens HNR 1544; experiment: as above; format: cell-based; settings: HNR1544; Serratia marcescens HNR 1544, Gram -; 10^6 cfu/ml; 18 hrs at 37 °C
Description: as §1

[22] = system: Serratia marcescens HNR 1767; experiment: as above; format: cell-based; settings: HNR1767; Serratia marcescens HNR 1767, Gram -; 10^6 cfu/ml; 18 hrs at 37 °C
Description: as §1

[23] = system: Serratia marcescens HNR 1792; experiment: as above; format: cell-based; settings: HNR1792; Serratia marcescens HNR 1792, Gram -; 10^6 cfu/ml; 18 hrs at 37 °C
Description: as §1

[24] = system: Staphylococcuss aureus HPC 292; experiment: as above; format: cell-based; settings: Staphylococcuss aureus HPC 292, Gram +; 10^6 cfu/ml; 18 hrs at 37 °C
Description: as §1

[25] = system: Staphylococcuss aureus HPC 308; experiment: as above; format: cell-based; settings: Staphylococcuss aureus HPC 308, Gram +; 10^6 cfu/ml; 18 hrs at 37 °C
Description: as §1

[26] = system: Staphylococcuss aureus HPC 527; experiment: as above; format: cell-based; settings: Staphylococcuss aureus HPC 527, Gram +; 10^6 cfu/ml; 18 hrs at 37 °C
Description: as §1

Male mice of ddY strain = experiment: Convulsion inducing activity in combination with fenbufen; settings: thirty minutes after fenbufen 100 mg/kg orally
Description: Male mice of ddY strain, 5 weeks old, were used. Fenbufen suspended in 0.5 % carboxymethylcellulose was administered orally at a dose of 100 mg/kg. After thirty minutes, test compounds suspended in 0.5 % carboxymethylcellulose were injected intraperitoneally (i.p.) at a dose of 100 mg/kg or 300 mg/kg.

[27] = PCI602, Klebsiella pneumoniae PCI-602, Gram -, 10^6 cfu/ml, 18 hrs at 37 °C, read-out: MIC

Compound | MIC (Enterobacter cloacae 963) | MIC [1] | MIC [2] | MIC [3] | MIC [4] | MIC [5, 27] | MIC [6] | MIC [7] | MIC [8] | MIC [9] | MIC [10] | MIC [11] | MIC [12] | MIC [13] | MIC [14] | MIC [15] | MIC [16] | MIC [17] | MIC [18] | MIC [19] | further results
CC1Sc2c(C(=O)O)c(=O)c3cc(F)c(N4CC[C@@H](N)C4)c(F)c3n21 (single isomer, unassigned) [Example 26] | 0.05 µg/mL (≈ 0.136 µM) | 0.025 µg/mL (≈ 0.068 µM) | 0.1 µg/mL (≈ 0.272 µM) | 0.05 µg/mL (≈ 0.136 µM) | 0.05 µg/mL (≈ 0.136 µM) | 0.012 µg/mL (≈ 0.0327 µM) | 25 µg/mL (≈ 68 µM) | 0.1 µg/mL (≈ 0.272 µM) | 0.78 µg/mL (≈ 2.12 µM) | 0.1 µg/mL (≈ 0.272 µM) | 3.13 µg/mL (≈ 8.52 µM) | 0.2 µg/mL (≈ 0.544 µM) | 0.39 µg/mL (≈ 1.06 µM) | 3.13 µg/mL (≈ 8.52 µM) | 0.1 µg/mL (≈ 0.272 µM) | 1.56 µg/mL (≈ 4.25 µM) | 0.2 µg/mL (≈ 0.544 µM) | 0.78 µg/mL (≈ 2.12 µM) | 6.25 µg/mL (≈ 17 µM) | 0.1 µg/mL (≈ 0.272 µM) | MIC [20]: 6.25 µg/mL (≈ 17 µM); MIC [21]: 0.05 µg/mL (≈ 0.136 µM); MIC [22]: 6.25 µg/mL (≈ 17 µM); MIC [23]: 1.56 µg/mL (≈ 4.25 µM); MIC [24]: 3.13 µg/mL (≈ 8.52 µM); MIC [25]: 0.78 µg/mL (≈ 2.12 µM); MIC [26]: 0.05 µg/mL (≈ 0.136 µM)
CC1Sc2c(C(=O)O)c(=O)c3cc(F)c(N4CC[C@H](N)C4)c(F)c3n21 (single isomer, unassigned) [Example 18] | 0.006 µg/mL (≈ 0.0163 µM) | 0.006 µg/mL (≈ 0.0163 µM) | 0.025 µg/mL (≈ 0.068 µM) | 0.012 µg/mL (≈ 0.0327 µM) | 0.006 µg/mL (≈ 0.0163 µM) | ≤ 0.0015 µg/mL | 3.13 µg/mL (≈ 8.52 µM) | 0.025 µg/mL (≈ 0.068 µM) | 0.78 µg/mL (≈ 2.12 µM) | 0.05 µg/mL (≈ 0.136 µM) | 1.56 µg/mL (≈ 4.25 µM) | 0.1 µg/mL (≈ 0.272 µM) | 0.39 µg/mL (≈ 1.06 µM) | 1.56 µg/mL (≈ 4.25 µM) | 0.05 µg/mL (≈ 0.136 µM) | 0.78 µg/mL (≈ 2.12 µM) | 0.05 µg/mL (≈ 0.136 µM) | 0.39 µg/mL (≈ 1.06 µM) | 1.56 µg/mL (≈ 4.25 µM) | 0.05 µg/mL (≈ 0.136 µM) | MIC [20]: 3.13 µg/mL (≈ 8.52 µM); MIC [21]: 0.012 µg/mL (≈ 0.0327 µM); MIC [22]: 3.13 µg/mL (≈ 8.52 µM); MIC [23]: 0.78 µg/mL (≈ 2.12 µM); MIC [24]: 0.78 µg/mL (≈ 2.12 µM); MIC [25]: 0.39 µg/mL (≈ 1.06 µM); MIC [26]: 0.012 µg/mL (≈ 0.0327 µM); Number of convulsion induced / Number of animals (Male mice of ddY strain; 100 mg/kg (i.p.)): 0 / 6; Number of convulsion induced / Number of animals (Male mice of ddY strain; 300 mg/kg (i.p.)): 0 / 6
CC1Sc2c(C(=O)O)c(=O)c3cc(F)c(N4CC[C@@H](N)C4)c(Cl)c3n21 (single isomer, unassigned) [Example 17] | 0.05 µg/mL (≈ 0.13 µM) | 0.025 µg/mL (≈ 0.0651 µM) | 0.1 µg/mL (≈ 0.261 µM) | 0.05 µg/mL (≈ 0.13 µM) | 0.025 µg/mL (≈ 0.0651 µM) | 0.025 µg/mL (≈ 0.0651 µM) | 12.5 µg/mL (≈ 32.6 µM) | 0.1 µg/mL (≈ 0.261 µM) | 0.78 µg/mL (≈ 2.03 µM) | 0.1 µg/mL (≈ 0.261 µM) | 1.56 µg/mL (≈ 4.06 µM) | 0.2 µg/mL (≈ 0.521 µM) | 0.39 µg/mL (≈ 1.02 µM) | 1.56 µg/mL (≈ 4.06 µM) | 0.1 µg/mL (≈ 0.261 µM) | 1.56 µg/mL (≈ 4.06 µM) | 0.2 µg/mL (≈ 0.521 µM) | 0.78 µg/mL (≈ 2.03 µM) | 3.13 µg/mL (≈ 8.15 µM) | 0.2 µg/mL (≈ 0.521 µM) | MIC [20]: 6.25 µg/mL (≈ 16.3 µM); MIC [21]: 0.05 µg/mL (≈ 0.13 µM); MIC [22]: 6.25 µg/mL (≈ 16.3 µM); MIC [23]: 1.56 µg/mL (≈ 4.06 µM); MIC [24]: 1.56 µg/mL (≈ 4.06 µM); MIC [25]: 0.78 µg/mL (≈ 2.03 µM); MIC [26]: 0.05 µg/mL (≈ 0.13 µM)
O=C(O)c1cn(C2CC2)c2cc(N3CCNCC3)c(F)cc2c1=O [Ref. Drug A, ciprofloxacin hydrochloride] |  |  |  |  |  |  |  |  |  |  |  |  |  |  |  |  |  |  |  |  | MIC ([5]; Klebsiella pneumoniae, PCI602, 18 h): 0.012 µg/mL; Number of convulsion induced / Number of animals (Male mice of ddY strain; 100 mg/kg (i.p.)): 4 / 6; Number of convulsion induced / Number of animals (Male mice of ddY strain; 300 mg/kg (i.p.)): 6 / 6

From patent EP0465716A1, “Optically active thiazetoquino-line-3-carboxylic acid compound, method for preparation thereof, and a pharmaceutical composition comprising the same” (priority 1990, dated 1992)
